Results from patent US11857521B1, “Anti-mycobacterial drugs” (priority 2022, dated 2024).
Like-named read-outs stand apart in the source and are kept apart here.

Key:
E. coli ATCC 8739 = format: cell-based, Escherichia coli
M. smegmatis [1] = settings: after 2 h of treatment
MSMEG_2694 = settings: 2×MIC for an hour, sigA housekeeping gene
Description: (§1) The bacterial cell suspension centrifuged at 40000×g for 5 min at 25° C. and resuspended in 1 mL guanidine thiocyanate (GTC) buffer. The cells were spun down at 12000×g for 5 min and resuspended in 750 μL of TRIzol reagent (Invitrogen), and added to 0.5 mL of 0.1 mm zirconia/silica beads. Cells were lysed in a bead beater for two 1 min intervals with incubation on ice between intervals. Afterwards, 2004 of chloroform was added to the tube, mixed, and spun at 12000×g for 15 min. The aqueous layer was carefully removed to 500 μL of RNase-free ethanol and mixed. From the solution, 700 μL were loaded onto Rnease Kit (Qiagen) miniprep columns and spun at 10000×g for 1 min. The remainder of the solution was then loaded and spun. The column was washed with 700 μL of RW1 buffer and discarded. The column was then washed twice with 500 μL RPE buffer and spun as previously described. The column was transferred to a new tube to elute the sample using 30 μL of RNase-free water and spun.
(§2) To ensure there is DNA-free, the sample was treated using TURBO DNA-free kit (Ambion) where a 1 μL of DNase and 3.5 μL of 10×DNase Buffer were added to the 30 μL of RNA and incubated for 1 h at 37° C. […] The concentration of RNA was determined through a ThermoFisher multichannel NanoDrop and adjusted to 50 ng/mL for cDNA reaction. […]

S. aureus ATCC 6538 = format: cell-based, Staphylococcus aureus
M. smegmatis [2] = experiment: Checkerboard assay with OCG; format: cell-based, Mycobacterium smegmatis; settings: for Interaction / FICI (Fractional Inhibitory Concentration Index): drug in combination with OCG; for FICI (Fractional Inhibitory Concentration Index): range of three experiments
MSMEG_5072 = settings: 2×MIC for an hour, sigA housekeeping gene
Description: as §1, §2

M. smegmatis mc^2155 [3] = settings: 4×MIC for 1 h
Description: Similarly, outer membrane permeability assay using 10 μM N-Phenyl-2-naphthylamine in 4% acetone was used as a non-fluorescent dye that upon hydrophobic interaction, it emits fluorescence signal. Cells were grown to mid-log phase (OD600=0.5), centrifuged at 4000×g for 2 min at 25° C., washed and resuspended in 5 mM HEPES buffer, pH 7.2. Compounds were made in HEPES buffer and 50 μL was added to an optical bottom black-sided 96-well microtiter plate. Then 50 μL of 40 μM NPN solution and 100 μL of cell suspension were added to the plate. Fluorescence was measured at 350/400 nm (excitation/emission) for 1 h. Experiments were performed in triplicates.

[4] = 2 mM OCG in 100 mM NaCl, titrated with 25 mM NaOH
Description: The pH was measured using a Mettler Toledo in Lab Ultra-Micro pH Probe. The acidified solution was titrated at 5 μL increments of 25 mM NaOH. The pH readings were recorded from pH ˜2.5-11. After plotting ΔpH/Δvolume of NaOH, the two points where the largest change in pH occurred were found. The median volume between the two maxima was identified as the point where pH=pKa. Solution of 100 mM NaCl served as control. Experiment was performed in triplicates.

M. smegmatis mc^2155 [5] = settings: 2×MIC
Description: M. smegmatis mc^2155 was culture as previously described in the MIC assay. […] After treatment period, 500 μL of the solution was centrifuge at 3000×g for 30 s at 25° C. The pellet was resuspended in 1 mL glutaraldehyde/cacodylate fixative solution and stored at −20° C. before imaging. Images were analyzed for significant morphological changes. The frequency of membrane ruffling, membrane delamination, cytosolic leakage, and cells that appeared hollowed (i.e., cell death) were counted and divided by the total cell number per frame. The percent of the observed cell envelope stress indicators was used for statistical analysis.

M. smegmatis mc^2155 [6] = format: cell-based, Mycobacterium smegmatis
[7] = system: M. smegmatis membrane potential (Δψ); settings: OCG at 2×MIC; CCCP at various concentrations
Description: Bacterial cells were grown to late log-phase in 7H9. Cells were centrifuged at 3000×g for 5 min at 25° C., washed twice and resuspended in 10 mL of 5 mM HEPES buffer, pH 7.2 supplemented with 1 mM glucose. OD600 of the cells was then adjusted to 0.4. The cell suspension was treated with 1 μM of the potentiometric probe 3,3′-Dipropylthiadicarbocyanine Iodide (DiSC3(5)) was added. It was incubated at 37° C., and monitored the quenching of DiSC3(5) dye in the presence of M. smegmatis cells for 30 min. In a black-sided 96-well microtiter plate, polymer solution was added to the plate and serially diluted two-fold in 50 mM HEPES buffer supplemented with 1 mM glucose and 2% DMSO for a final volume of 50 μL per well and 1% DMSO. After 30 min of quenching DiSC3(5), 50 μL of the bacterial suspension with dye was added to the polymer-containing wells. […] Fluorescence was recorded 590/635 nm (excitation/emission) for 1 h every 10 min on a BioTek Synergy H1 plate reader. Assay was performed at least three independent experiments.

[8] = Mycolicibacterium smegmatis, single agent in checkerboard assay, M. smegmatis, read-out: MIC

## oligo(carbamoylated guanidine) [OCG]
B. cepacia ATCC 2516
  MIC90 Bc: >200 µg/mL
E. coli ATCC 8739
  MIC90 Ec: >200 µg/mL
M. smegmatis [1]
  intracellular ATP levels (RLUs/CFUs): depletion of ATP levels
Mab 3690 R
  MIC90 Mab R: 188 µg/mL
  change of MIC, Mab R morphotype compared with S: ˜three-fold increase
MSMEG_2694
  increased expression level of MSMEG_2694 compared to control Msm: 50 fold
M. bovis BCG
  MIC90 BCG: 25 µg/mL
P. aureginosa ATCC 15442
  MIC90 Pa: >200 µg/mL
S. aureus ATCC 6538
  MIC90 Sa: 50 µg/mL
M. smegmatis [2]; single agent in checkerboard assay, M. smegmatis
  MIC: 6 µM
MSMEG_5072
  increased expression level of MSMEG_5072 compared to control Msm: 10 fold
Mab 3690 S
  MIC90 Mab S: 65 µg/mL
M. smegmatis mc^2155 [3]
  NPN fluorescence (membrane damage): no fluorescence intensity increase
[4]
  pKa: ~5
M. smegmatis mc^2155 [5]; starting from 1 h
  TEM: membrane ruffling and delamination: signs of membrane stress including ruffling and delamination were observed
M. smegmatis mc^2155 [5]; up to 24 h incubation
  TEM: frequency of cytosolic leakage, treated vs non-treated: no significant difference
M. smegmatis mc^2155 [6]
  change of MIC, Msm cultured in LB compared with 7H9 medium: increased ˜four times
M. smegmatis mc^2155 [6]; M. smegmatis mc 155, Table 2
  MIC90 Msm: 6 µg/mL
M. smegmatis mc^2155 [6]; Msm mc^2 155 grown in 7H9 medium
  MIC90 Msm: 6 µg/mL
M. smegmatis mc^2155 [6]; Msm mc^2 155 grown in LB
  MIC90 Msm: 25 to 50 µg/mL
C. albicans ATCC 10231
  MIC90 Ca: >200 µg/mL

## CC(C)/N=c1\cc2n(-c3ccc(Cl)cc3)c3ccccc3nc-2cc1Nc1ccc(Cl)cc1 [Clofazimine (CLZ), clofazimine]
M. smegmatis [2]; [8]
  MIC: 2.5 µg/mL
M. smegmatis [2]; M. smegmatis
  Interaction: Additive
  FICI (Fractional Inhibitory Concentration Index): 0.5-0.75
M. smegmatis [2]; M. smegmatis, listed as CLZ
  FICI (Fractional Inhibitory Concentration Index): 0.50-0.75

## COc1nc2ccc(Br)cc2cc1[C@@H](c1ccccc1)[C@@](O)(CCN(C)C)c1cccc2ccccc12 [Bedaquiline (BDQ), bedaquiline]
M. smegmatis [2]; Mycolicibacterium smegmatis
  MIC: 0.12 µg/mL
M. smegmatis [2]; M. smegmatis
  Interaction: Synergy
  FICI (Fractional Inhibitory Concentration Index): 0.38-0.5

## cyanide m-chlorophenyl hydrazone [CCCP, reference compound]
[7]
  membrane potential (Δψ), DiSC3(5) fluorescence: did not exhibit concentration-dependent potential changes

## CO[C@H]1/C=C/O[C@@]2(C)Oc3c(C)c(O)c4c(O)c(c(/C=N/N5CCN(C)CC5)c(O)c4c3C2=O)NC(=O)/C(C)=C\C=C\[C@H](C)[C@H](O)[C@@H](C)[C@@H](O)[C@@H](C)[C@H](OC(C)=O)[C@@H]1C [Rifampin (RIF), rifampin]
M. smegmatis [2]; [8]
  MIC: 8 µg/mL
M. smegmatis [2]; M. smegmatis
  Interaction: Additive
  FICI (Fractional Inhibitory Concentration Index): 1-2
